Legend:
[1] = Inhibition of NP-40-induced beta-haematin formation after 5 to 6 hrs hrs by UV-vis spectroscopic analysis; assay type: physicochemical
CHO = assay: Cytotoxicity against CHO cells by MTT assay; assay type: cell-based; settings: Cricetulus griseus

SMILES | IC50 [1] [µM] | IC50 (CHO) [µM]
CCN(CC)Cc1cc(Nc2ccnc3cc(Cl)ccc23)ccc1O | 6.8 | 
CCN(CC)CCCC(C)Nc1ccnc2cc(Cl)ccc12 (stereo not drawn) [CHLOROQUINE] | 18.2 | 
CC[C@H]1CN2CCc3cc(OC)c(OC)cc3[C@@H]2C[C@@H]1C[C@H]1NCCc2cc(OC)c(OC)cc21 [EMETINE] |  | 0.041
